One data set concerns POLCO. The experiment in a line: Herbicidal action pre-emergence (greenhouse pot test, visual rating). In kind it is in vivo, Polygonum convolvolus. The note with it: Vorauflauf, 1280 g/ha, visual rating after 3 weeks vs untreated controls. The source says: (§1) Samen von mono- bzw. dikotylen Unkraut- bzw. Kulturpflanzen werden in Holzfasertöpfen in sandiger Lehmerde ausgelegt und mit Erde abgedeckt. Die in Form von benetzbaren Pulvern (WP) oder als Emulsionskonzentrate (EC) formulierten erfindungsgemäßen Verbindungen werden dann als wäßrige Suspension bzw. Emulsion mit einer Wasseraufwandmenge von umgerechnet 600 bis 800 l/ha unter Zusatz von 0,2% Netzmittel auf die Oberfläche der Abdeckerde appliziert.
(§2) Nach der Behandlung werden die Töpfe im Gewächshaus aufgestellt und unter guten Wachstumsbedingungen für die Testpflanzen gehalten. Die visuelle Bonitur der Schäden an den Versuchspflanzen erfolgt nach einer Versuchszeit von 3 Wochen im Vergleich zu unbehandelten Kontrollen (herbizide Wirkung in Prozent (%): 100% Wirkung = Pflanzen sind abgestorben, 0 % Wirkung = wie Kontrollpflanzen).

In data set [1] the test system is AMARE. The description is as above. In kind it is in vivo, Amaranthus retroflexus. As to conditions: Vorauflauf, 1280 g/ha, visual rating after 3 weeks vs untreated controls.
Excerpt: as §1, §2

The test system of data set [2] is VIOTR. Described as above. In kind it is in vivo, Viola tricolor. As to conditions: Vorauflauf, 1280 g/ha, visual rating after 3 weeks vs untreated controls.
Excerpt: as §1, §2

A further data set deals with ECHCG. The description is as above. In kind it is in vivo, Echinochloa crus-galli. The note with it: Vorauflauf, 1280 g/ha, visual rating after 3 weeks vs untreated controls.
Excerpt: as §1, §2

A further data set has as its system SETVI. Described as above. In kind it is in vivo, Setaria viridis. The note with it: Vorauflauf, 1280 g/ha, visual rating after 3 weeks vs untreated controls.
Excerpt: as §1, §2

In a further data set the test system is LOLMU. The data set is described as above. As to conditions: Vorauflauf, 1280 g/ha, visual rating after 3 weeks vs untreated controls. In kind it is in vivo, Lolium multiflorum.
Excerpt: as §1, §2

In data set [3] the test system is VERPE. The data set is described as above. In kind it is in vivo, Veronica persica. The note with it: Vorauflauf, 1280 g/ha, visual rating after 3 weeks vs untreated controls.
Excerpt: as §1, §2

Data set [4] has as its system Schadpflanzen. Briefly: Herbicidal action pre-emergence, summary over the weed spectrum. The note with it: Vorauflaufverfahren, Aufwandmenge von 1.28 kg und weniger Aktivsubstanz pro Hektar. In kind it is in vivo.
Excerpt: as §1, §2

In data set [5] the test system is STEME. The experiment in a line: Herbicidal action pre-emergence (greenhouse pot test, visual rating). As to conditions: Vorauflauf, 1280 g/ha, visual rating after 3 weeks vs untreated controls. In kind it is in vivo, Stellaria media.
Excerpt: as §1, §2

For the next data set, the system named is AVEFA. The data set is described as above. In kind it is in vivo, Avena fatua. As to conditions: Vorauflauf, 1280 g/ha, visual rating after 3 weeks vs untreated controls.
Excerpt: as §1, §2

For data set [6], the system named is ABUTH. The data set is described as above. In kind it is in vivo, Abutilon theophrasti. As to conditions: Vorauflauf, 1280 g/ha, visual rating after 3 weeks vs untreated controls.
Excerpt: as §1, §2

Data set [7] has as its system MATIN. Described as above. In kind it is in vivo, Matricaria inodora. The note with it: Vorauflauf, 1280 g/ha, visual rating after 3 weeks vs untreated controls.
Excerpt: as §1, §2

Another data set concerns ALOMY. The description is as above. In kind it is in vivo, Alopecurus myosuroides. As to conditions: Vorauflauf, 1280 g/ha, visual rating after 3 weeks vs untreated controls.
Excerpt: as §1, §2

The subject of data set [8] is VERPE. The experiment in a line: Herbicidal action post-emergence (greenhouse pot test, visual rating). As to conditions: Nachauflauf, 1280 g/ha, visual rating after ca. 3 weeks vs untreated controls. In kind it is in vivo, Veronica persica. The source says:
(§3) Samen von mono- bzw. dikotylen Unkraut- bzw. Kulturpflanzen werden in Holzfasertöpfen in sandigem Lehmboden ausgelegt, mit Erde abgedeckt und im Gewächshaus unter guten Wachstumsbedingungen angezogen. 2 bis 3 Wochen nach der Aussaat werden die Versuchspflanzen im Einblattstadium behandelt. Die in Form von benetzbaren Pulvern (WP) oder als Emulsionskonzentrate (EC) formulierten erfindungsgemäßen Verbindungen werden dann als wäßrige Suspension bzw. Emulsion mit einer Wasseraufwandmenge von umgerechnet 600 bis 800 l/ha unter Zusatz von 0,2% Netzmittel auf die grünen Pflanzenteile gesprüht. Nach ca. 3 Wochen Standzeit der Versuchspflanzen im Gewächshaus unter optimalen Wachstumsbedingungen wird die Wirkung der Präparate visuell im Vergleich zu unbehandelten Kontrollen bonitiert (herbizide Wirkung in Prozent (%): 100% Wirkung = Pflanzen sind abgestorben, 0 % Wirkung = wie Kontrollpflanzen).

A further data set relates to PHBPU. The data set is described as above. In kind it is in vivo, Pharbitis purpurea. The note with it: Nachauflauf, 1280 g/ha, visual rating after ca. 3 weeks vs untreated controls.
Excerpt: as §3

In data set [9] the test system is VIOTR. The data set is described as above. In kind it is in vivo, Viola tricolor. As to conditions: Nachauflauf, 1280 g/ha, visual rating after ca. 3 weeks vs untreated controls.
Excerpt: as §3

Data set [10] deals with STEME. Described as above. In kind it is in vivo, Stellaria media. As to conditions: Nachauflauf, 1280 g/ha, visual rating after ca. 3 weeks vs untreated controls.
Excerpt: as §3

Data set [11] relates to ABUTH. Described as above. In kind it is in vivo, Abutilon theophrasti. As to conditions: Nachauflauf, 1280 g/ha, visual rating after ca. 3 weeks vs untreated controls.
Excerpt: as §3

Data set [12] deals with AMARE. The data set is described as above. In kind it is in vivo, Amaranthus retroflexus. As to conditions: Nachauflauf, 1280 g/ha, visual rating after ca. 3 weeks vs untreated controls.
Excerpt: as §3

For data set [13], the system named is MATIN. Described as above. In kind it is in vivo, Matricaria inodora. As to conditions: Nachauflauf, 1280 g/ha, visual rating after ca. 3 weeks vs untreated controls.
Excerpt: as §3

Data set [14] relates to Schadpflanzen. Briefly: Herbicidal action post-emergence, summary over the weed spectrum. In kind it is in vivo. The note with it: Nachauflaufverfahren, Aufwandmenge von 1.28 kg und weniger Aktivsubstanz pro Hektar.
Excerpt: as §3

A further data set can be described thus: Log P. In kind it is physicochemical.

The values below come from patent publication EP2147919A1, “Heterocyclic substituted amides, method for their manufacture and their use as herbicides” (Bayer CropScience Aktiengesellschaft, priority 2008, dated 2010).

By logP is commonly meant a log measure of how a compound divides between an organic and an aqueous phase.

Regarding `CCCOc1cc(C)nc(Br)c1C(=O)NC(c1ccc(F)c(F)c1)c1ccon1` (centres unmarked) [Beispiel 161], the “herbizide Wirkung POLCO” value in the data set with POLCO amounted to 100%. For the same molecule, the “herbizide Wirkung AMARE” value in the data set with AMARE [1] came out at 100%. Also, the “herbizide Wirkung VIOTR” value with VIOTR [2] is given as 100%. Moreover, in the data set on ECHCG, the “herbizide Wirkung ECHCG” value is given as 80%. Moreover, the “herbizide Wirkung SETVI” value with SETVI was 100%. The “herbizide Wirkung LOLMU” value with LOLMU amounted to 90%. Also, the “herbizide Wirkung VERPE” value in the data set on VERPE [3] is reported as 100%. Moreover, the “herbizide Wirkung gegen Schadpflanzen” value with Schadpflanzen [4] is “sehr gute herbizide Wirkung”. The “herbizide Wirkung STEME” value with STEME [5] stood at 100%. In addition, in the data set on AVEFA, the “herbizide Wirkung AVEFA” value is 80%. For the same molecule, the “herbizide Wirkung ABUTH” value with ABUTH [6] came to 100%. The “herbizide Wirkung MATIN” value in the data set with MATIN [7] was found to be 100%. Besides, in the data set on ALOMY, the “herbizide Wirkung ALOMY” value was determined as 90%.

Take `COc1ccc(C(NC(=O)c2c(C)nn(C)c2Cl)c2ccon2)c(F)c1` (centres unmarked) [Beispiel 261]: the “herbizide Wirkung AMARE” value turned out to be 100% in the data set with AMARE [1] and 90% in the data set with AMARE [12]. The “herbizide Wirkung VERPE” value in the data set with VERPE [8] and in the data set on VERPE [3] was 100% throughout. The “herbizide Wirkung PHBPU” value in the data set on PHBPU was determined as 80%. Moreover, the “herbizide Wirkung SETVI” value in the data set on SETVI came out at 90%. Besides, the “herbizide Wirkung VIOTR” value with VIOTR [9] was found to be 100%. Further, the “herbizide Wirkung STEME” value with STEME [10] and in the data set on STEME [5] was 100% in each case. In addition, the “herbizide Wirkung ABUTH” value with ABUTH [11] was 80%. The “herbizide Wirkung MATIN” value in the data set with MATIN [13] and with MATIN [7] was 100% throughout.

Regarding `CCCOc1cc(C)nc(Cl)c1C(=O)NC(c1ccon1)c1ccc(OC)cc1F` (centres unmarked) [Beispiel 2, 2-Chlor-N-[(2-fluor-4-methoxyphenyl)(isoxazol-3-yl)methyl]-6-methyl-4-n-propoxynicotinamid], the “herbizide Wirkung gegen Schadpflanzen” value in the data set on Schadpflanzen [14] is reported as “sehr gute herbizide Wirkung”.

For the molecule `CCCOc1cc(C)nc(Br)c1C(=O)NC(c1cccc(Cl)c1)c1ccon1` (centres unmarked) [Beispiel 162], the “herbizide Wirkung POLCO” value with POLCO is 100%. The “herbizide Wirkung gegen Schadpflanzen” value in the data set on Schadpflanzen [14] and with Schadpflanzen [4] was “sehr gute herbizide Wirkung” in each case. Also, in the data set with AMARE [1], the “herbizide Wirkung AMARE” value came out at 100%. Moreover, the “herbizide Wirkung VIOTR” value in the data set with VIOTR [2] is given as 100%. Also, the “herbizide Wirkung ECHCG” value with ECHCG was 80%. Further, the “herbizide Wirkung SETVI” value in the data set with SETVI is recorded as 80%. Moreover, in the data set with LOLMU, the “herbizide Wirkung LOLMU” value is given as 80%. In addition, the “herbizide Wirkung VERPE” value in the data set with VERPE [3] is listed as 100%. Moreover, the “herbizide Wirkung STEME” value with STEME [5] worked out at 100%. The “herbizide Wirkung ABUTH” value with ABUTH [6] came to 100%. The “herbizide Wirkung MATIN” value with MATIN [7] stood at 100%. Moreover, in the data set with ALOMY, the “herbizide Wirkung ALOMY” value is 90%.

In the case of `Cc1cc(OC(C)C)c(C(=O)NC(c2ccc(F)c(F)c2)c2ccon2)c(Cl)n1` (racemic) [Beispiel 174, 2-Chlor-N-[(3,4-difluorphenyl)(isoxazol-3-yl)methyl]-4-isopropoxy-6-methylnicotinamid], the “herbizide Wirkung AMARE” value with AMARE [1] and with AMARE [12] was 100% throughout. Also, the “herbizide Wirkung VERPE” value with VERPE [8] and in the data set on VERPE [3] was 100% throughout. For the same molecule, the “herbizide Wirkung PHBPU” value in the data set on PHBPU is recorded as 80%. This molecule displayed a logP in the data set “Log P” of 2.26. In addition, the “herbizide Wirkung VIOTR” value in the data set on VIOTR [9] was 80%. For the same molecule, the “herbizide Wirkung STEME” value in the data set with STEME [10] and with STEME [5] was 100% throughout. The “herbizide Wirkung ABUTH” value with ABUTH [11] and in the data set with ABUTH [6] was 100% throughout. The “herbizide Wirkung MATIN” value in the data set with MATIN [13] amounted to 90%; in the data set on MATIN [7] it was 80%. Also, the “herbizide Wirkung ALOMY” value with ALOMY worked out at 60%.
